Data taken from ChEMBL document CHEMBL3817791, “Discovery of 4-(4-aminopyrazolo[1,5-a][1,3,5]triazin-8-yl)benzamides as novel, highly potent and selective, orally bioavailable inhibitors of Tyrosine Threonine Kinase, TTK” (Bioorg Med Chem Lett, 2016).
Values belong to the molecule of their own block, whether it stands above or below them.

Legend:
[1] = target: Rho-associated protein kinase 2 (Homo sapiens) (UniProt O75116); experiment: Inhibition of recombinant human N-terminal His6-tagged ROCK2 (11 to 552 residues) expressed in baculovirus infected Sf21 cells at 1 uM by radiometric assay relative to control
[2] = Antiproliferative activity against human OVCAR3 cells; format: functional; settings: OVCAR-3
[3] = tested on: MDA-MB-231; experiment: Antiproliferative activity against human MDA-MB-231 cells; format: functional
[4] = Antiproliferative activity against human HCT116 cells; format: functional; settings: HCT-116
[5] = target: T1, Dual specificity protein kinase TTK (Homo sapiens, UniProt P33981); experiment: Inhibition of TTK (unknown origin)
T1 sequence (P33981 whole entry): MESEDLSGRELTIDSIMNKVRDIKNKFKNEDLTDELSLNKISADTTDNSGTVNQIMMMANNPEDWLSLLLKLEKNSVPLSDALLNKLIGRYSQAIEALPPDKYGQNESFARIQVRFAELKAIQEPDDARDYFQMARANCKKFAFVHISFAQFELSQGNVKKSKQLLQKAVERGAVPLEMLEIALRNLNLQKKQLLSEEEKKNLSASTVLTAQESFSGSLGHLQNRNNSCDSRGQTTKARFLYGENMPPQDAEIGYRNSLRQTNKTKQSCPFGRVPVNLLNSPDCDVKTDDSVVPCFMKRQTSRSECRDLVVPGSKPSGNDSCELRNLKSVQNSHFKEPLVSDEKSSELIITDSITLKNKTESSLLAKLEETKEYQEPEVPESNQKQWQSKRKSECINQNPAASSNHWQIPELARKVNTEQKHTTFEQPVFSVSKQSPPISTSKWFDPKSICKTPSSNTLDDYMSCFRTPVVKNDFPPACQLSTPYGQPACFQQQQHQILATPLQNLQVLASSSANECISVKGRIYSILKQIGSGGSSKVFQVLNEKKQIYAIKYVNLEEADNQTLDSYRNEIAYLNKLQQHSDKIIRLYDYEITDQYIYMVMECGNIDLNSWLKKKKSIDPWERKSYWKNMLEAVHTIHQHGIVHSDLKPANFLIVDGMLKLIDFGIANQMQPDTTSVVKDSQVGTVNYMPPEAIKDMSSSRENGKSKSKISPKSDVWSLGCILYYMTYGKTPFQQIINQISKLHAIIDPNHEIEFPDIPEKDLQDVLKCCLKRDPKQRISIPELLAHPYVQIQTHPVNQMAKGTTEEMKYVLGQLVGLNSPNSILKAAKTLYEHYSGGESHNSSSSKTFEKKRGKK

[6] = tested on: HT-29; experiment: Antiproliferative activity against human HT-29 cells; format: functional
[7] = target: Cytochrome P450 3A4 (Homo sapiens, UniProt P08684); experiment: Inhibition of CYP3A4 (unknown origin); format: ADME
[8] = Half life in rat microsomes; format: ADME, Microsome
[9] = Half life in human microsomes; format: ADME, Microsome
[10] = Half life in mouse microsomes; format: ADME, Microsome
[11] = Antiproliferative activity against human PA1 cells; format: functional; settings: PA-1
[12] = tested on: MDA-MB-468; experiment: Antiproliferative activity against human MDA-MB-468 cells; format: functional
[13] = Cmax in mouse at 10 mg/kg, po; format: ADME, organism-based; set-up: dose 10 mg/kg, route oral; settings: in vivo
[14] = AUC in mouse at 10 mg/kg, po; format: ADME, organism-based; settings: in vivo
[15] = substrate: Cc1cc(-c2cnn3c(NCC4CCOCC4)nc(Oc4ccccc4)nc23)ccc1C(=O)NC1CC1; settings: Homo sapiens
Description: Inhibition of TTK (unknown origin) assessed as substrate Km(app) at 1.5 nM by double reciprocal plot analysis (Rvb = 8.4 uM)

[16] = substrate: Cc1cc(-c2cnn3c(NCC4CCOCC4)nc(Oc4ccccc4)nc23)ccc1C(=O)NC1CC1; settings: Homo sapiens; remark: listed apart in the source
Description: Inhibition of TTK (unknown origin) assessed as substrate Km(app) at 4.5 nM by double reciprocal plot analysis (Rvb = 8.4 uM)

[17] = substrate: Cc1cc(-c2cnn3c(NCC4CCOCC4)nc(Oc4ccccc4)nc23)ccc1C(=O)NC1CC1; settings: Homo sapiens; remark: listed apart in the source
Description: Inhibition of TTK (unknown origin) assessed as substrate Km(app) at 7.5 nM by double reciprocal plot analysis (Rvb = 8.4 uM)

Cytochrome P450 3A4, sequence (P08684 whole entry): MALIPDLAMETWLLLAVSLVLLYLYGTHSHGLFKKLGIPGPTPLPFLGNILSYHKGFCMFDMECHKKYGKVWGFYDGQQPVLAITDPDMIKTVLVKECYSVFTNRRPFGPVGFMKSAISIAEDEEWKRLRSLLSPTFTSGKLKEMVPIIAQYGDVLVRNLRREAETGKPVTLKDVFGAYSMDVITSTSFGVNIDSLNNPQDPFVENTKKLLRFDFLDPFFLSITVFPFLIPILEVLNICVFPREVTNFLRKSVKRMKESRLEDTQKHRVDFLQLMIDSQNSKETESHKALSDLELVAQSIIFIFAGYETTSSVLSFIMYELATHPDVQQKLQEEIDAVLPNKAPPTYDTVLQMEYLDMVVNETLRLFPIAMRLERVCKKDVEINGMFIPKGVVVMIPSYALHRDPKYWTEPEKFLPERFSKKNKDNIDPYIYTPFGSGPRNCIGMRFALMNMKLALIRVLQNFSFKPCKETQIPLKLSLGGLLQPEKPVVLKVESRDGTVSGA
Rho-associated protein kinase 2 (Homo sapiens), sequence (O75116 whole entry, looked up, the tested form may be a part): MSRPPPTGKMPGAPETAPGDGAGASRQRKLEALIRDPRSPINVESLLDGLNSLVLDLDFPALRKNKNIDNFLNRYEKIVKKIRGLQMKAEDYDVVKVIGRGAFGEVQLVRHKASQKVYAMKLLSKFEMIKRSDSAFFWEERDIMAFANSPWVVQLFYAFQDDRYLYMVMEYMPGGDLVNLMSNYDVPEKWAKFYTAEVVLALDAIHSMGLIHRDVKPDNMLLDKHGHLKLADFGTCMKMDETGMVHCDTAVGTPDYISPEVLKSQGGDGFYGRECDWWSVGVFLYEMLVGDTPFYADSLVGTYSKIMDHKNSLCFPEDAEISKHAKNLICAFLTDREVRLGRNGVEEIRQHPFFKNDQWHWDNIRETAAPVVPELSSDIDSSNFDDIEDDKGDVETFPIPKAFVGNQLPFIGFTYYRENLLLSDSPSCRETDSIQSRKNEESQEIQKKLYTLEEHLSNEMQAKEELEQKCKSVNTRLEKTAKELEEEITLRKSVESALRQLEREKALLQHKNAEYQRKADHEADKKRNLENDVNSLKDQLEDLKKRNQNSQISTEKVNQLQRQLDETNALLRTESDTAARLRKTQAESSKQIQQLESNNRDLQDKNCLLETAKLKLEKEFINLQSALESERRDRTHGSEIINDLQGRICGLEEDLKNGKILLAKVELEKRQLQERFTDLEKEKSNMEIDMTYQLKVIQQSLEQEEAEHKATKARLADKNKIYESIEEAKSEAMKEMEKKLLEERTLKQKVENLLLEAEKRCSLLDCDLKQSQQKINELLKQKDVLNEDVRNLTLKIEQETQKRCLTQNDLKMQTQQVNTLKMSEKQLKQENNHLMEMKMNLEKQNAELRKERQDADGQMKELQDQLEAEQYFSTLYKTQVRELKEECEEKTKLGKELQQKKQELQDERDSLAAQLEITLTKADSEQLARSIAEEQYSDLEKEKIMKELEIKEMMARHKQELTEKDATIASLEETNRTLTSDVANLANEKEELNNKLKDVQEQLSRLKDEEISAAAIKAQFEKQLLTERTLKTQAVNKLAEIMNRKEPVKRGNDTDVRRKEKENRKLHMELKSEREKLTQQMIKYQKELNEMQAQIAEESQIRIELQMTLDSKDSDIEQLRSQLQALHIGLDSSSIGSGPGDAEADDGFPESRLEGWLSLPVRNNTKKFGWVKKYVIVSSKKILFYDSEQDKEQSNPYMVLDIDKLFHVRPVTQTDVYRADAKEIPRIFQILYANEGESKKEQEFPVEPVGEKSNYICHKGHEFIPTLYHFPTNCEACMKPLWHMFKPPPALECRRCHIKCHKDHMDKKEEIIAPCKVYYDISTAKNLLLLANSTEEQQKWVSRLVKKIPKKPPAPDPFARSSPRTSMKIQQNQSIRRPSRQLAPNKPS

Molecule: O=C(N[C@@H](c1ccccn1)C1CC1)c1ccc2[nH]nc(-c3ccc(N4C5CCC4CC(O)C5)cc3)c2c1 (stereo not given in full)
inhibition [1]: 50%

Molecule: O=C(NC1CC1)c1ccc(-c2cnn3c(NCC4CCOCC4)nc(NC4CCCC4)nc23)cc1F
GI50 [2]: 1700 nM
GI50 [3]: 1400 nM
GI50 [4]: 850 nM
IC50 [5]: 7 nM

Molecule: Cc1cc(-c2cnn3c(NCC4CCOCC4)nc(NC4CCCC4)nc23)ccc1C(=O)NC1CC1
GI50 [6]: 84 nM
IC50 [7]: 19000 nM
GI50 [2]: 480 nM
GI50 [3]: 170 nM
half-life [8]: 11 min
GI50 [4]: 130 nM
half-life [9]: > 60 min
half-life [10]: 14 min
GI50 [11]: 53 nM
GI50 [12]: 320 nM

Molecule: O=C(NC1CC1)c1ccc(-c2cnn3c(NCC4CCOCC4)nc(NC4CCCC4)nc23)cc1
GI50 [2]: 1700 nM
GI50 [3]: 690 nM
GI50 [4]: 390 nM
IC50 [5]: 10 nM

Molecule: Cc1cc(-c2cnn3c(NCC4CCOCC4)nc(NC4CCCCC4)nc23)ccc1C(=O)NC1CC1
GI50 [2]: 470 nM
GI50 [3]: 270 nM
GI50 [4]: 170 nM
IC50 [5]: 2.6 nM

Molecule: O=C(NC1CC1)c1ccc(-c2cnn3c(NCC4CCOCC4)nc(Oc4ccccc4)nc23)cc1
GI50 [2]: 910 nM
GI50 [3]: 350 nM
GI50 [4]: 200 nM
IC50 [5]: 4.9 nM

Molecule: Cc1cc(-c2cnn3c(NCC4CCOCC4)nc(OC4CCCC4)nc23)ccc1C(=O)NC1CC1
GI50 [2]: 590 nM
GI50 [3]: 230 nM
GI50 [4]: 160 nM
IC50 [5]: 2.3 nM

Molecule: Cc1cc(-c2cnn3c(NCC4CCOCC4)nc(Nc4ccccc4)nc23)ccc1C(=O)NC1CC1
GI50 [2]: 1700 nM
GI50 [3]: 1200 nM
GI50 [4]: 690 nM
IC50 [5]: 11 nM

Molecule: O=C(NC1CC1)c1ccc(-c2cnn3c(NCC4CCOCC4)nc(Oc4ccccc4)nc23)cc1Cl
GI50 [2]: 400 nM
GI50 [3]: 230 nM
GI50 [4]: 160 nM
IC50 [5]: 1.7 nM

Molecule: CC(C)C(=O)Nc1ccc(-c2cnn3c(NCC4CCOCC4)nc(OC4CCCC4)nc23)cc1
IC50 [5]: 1700 nM

Molecule: CN(c1nc(NCC2CCOCC2)n2ncc(-c3ccc(C(=O)NC4CC4)c(F)c3)c2n1)C1CCCCC1
IC50 [5]: 15 nM

B1: Dual specificity protein kinase TTK (Homo sapiens), P33981 (protein)
chain: T1 sequence (P33981 whole entry)
Km [15]: 17.4 µM
Km [16]: 39 µM
Km [17]: 63.4 µM

The remaining molecules from weak to strong by IC50 [5], led by results:

IC50 [5]: 2000 nM
Molecule: Cc1cc(-c2cnn3c(NCC4CCOCC4)nc(NC4CCCC4)nc23)ccc1NC(=O)C1CC1

IC50 [5]: 230 nM
Molecule: CC(C)NC(=O)c1ccc(-c2cnn3c(NCC4CCOCC4)nc(OC4CCCC4)nc23)cc1

GI50 [3]: 450 nM
IC50 [5]: 32 nM
Molecule: O=C(NC1CC1)c1ccc(-c2cnn3c(NCC4CCOCC4)nc(N4CCOCC4)nc23)cc1Cl
GI50 [2]: 70 nM
GI50 [4]: 440 nM

GI50 [3]: 960 nM
IC50 [5]: 24 nM
Molecule: O=C(NC1CC1)c1ccc(-c2cnn3c(NCCN4CCOCC4)nc(Oc4ccccc4)nc23)cc1
GI50 [2]: 410 nM
GI50 [4]: 880 nM

IC50 [5]: 14 nM
Molecule: COCCNc1nc(Oc2ccccc2)nc2c(-c3ccc(C(=O)NC4CC4)cc3)cnn12

GI50 [3]: 540 nM
IC50 [5]: 9 nM
Molecule: Cc1cc(-c2cnn3c(NCC4CCOCC4)nc(NC4CCOCC4)nc23)ccc1C(=O)NC1CC1
GI50 [2]: 780 nM
GI50 [4]: 280 nM

GI50 [3]: 1600 nM
IC50 [5]: 8.4 nM
Molecule: CC(=O)Nc1cccc(Oc2nc(NCC3CCOCC3)n3ncc(-c4ccc(C(=O)NC5CC5)c(C)c4)c3n2)c1
GI50 [2]: 1200 nM
GI50 [4]: 1300 nM

GI50 [6]: 21 nM
GI50 [3]: 40 nM
GI50 [12]: 150 nM
IC50 [5]: 2.2 nM
Molecule: Cc1cc(-c2cnn3c(NCCN4CCOCC4)nc(Oc4cccc(F)c4F)nc23)ccc1C(=O)NC1CC1
GI50 [2]: 170 nM
GI50 [4]: 14 nM
GI50 [11]: 17 nM

IC50 [7]: > 20000 nM
GI50 [3]: 12 nM
half-life [8]: 40 min
half-life [9]: > 60 min
half-life [10]: 28 min
Cmax [13]: 1600 ng/mL
IC50 [5]: 0.4 nM
AUC [14]: 4000 ng·h/mL
Molecule: Cc1cc(-c2cnn3c(NCC4CCOCC4)nc(Oc4cccc(F)c4F)nc23)ccc1C(=O)NC1CC1
GI50 [2]: 37 nM
GI50 [4]: 9 nM
